Results reported in US6818446B2, “Compositions and methods for the analysis of mucin gene expression and identification of drugs having the ability to inhibit mucin gene expression” (The Regents of the University of California, priority 2001, dated 2004).
Entries after “also recorded” stand apart in the source; their conditions may differ.

What was measured:
MUC5B-b2 promoter = assay: Effect of culture conditions and retinoic acid on MUC5B-b2 promoter-reporter activity in primary human TBE cells; type: cell-based; details: retinoic acid 30 nM
Method: For studying the effects of culture conditions on the promoter-reporter gene activity, primary human TBE cultures were grown in 60 mm dishes and transfected with 1 μg of MUC5B promoter-luciferase construct DNA and 0.5 μg pSV-β-gal expression vector. One day following the transfection, cultures were passaged into either 35 mm tissue culture dishes or into collagen gel-coated 25 mm Transwell™ chambers (Coming-COSTAR Catalog Number 3506). Additionally, the cultures were maintained either in the absence or presence of supplemental all-trans-retinoic acid (30 nM). For Transwell™ cultures, chambers were maintained in an air-liquid interface for an additional three days. Cell extracts were prepared and luciferase and β-galactosidase activities were analyzed as described above. For each transfection, relative luciferase activity was expressed after normalization for β-galactosidase activity. The results are presented as a mean of relative activities from at least triplicate dishes, and data is collected from at least three independent experiments. Activity is expressed as units of luciferase activity per unit of β-gal activity (units/beta-gal). […] Results are expressed as “fold increase” of luciferase activity, comparing RA-treated and RA-untreated cultures, where the activity of the RA untreated culture is set to 1. […]

MUC5B message = assay: Northern blot analysis of MUC5B message in primary TBE cell cultures; details: primary human TBE cells, presence vs absence of 30 nM retinoic acid
MUC5B promoter [1] = assay: Luciferase activity in stably transfected HBE1 cells carrying the MUC5B promoter reporter; type: cell-based, human; details: cytokine 10 ng/ml
Method: Experimental—The established cell line HBE1 was cultured in 35 mm dishes and grown to 60-80% confluence. These cells were cotransfected with either MUC-5B reporter construct and a second plasmid encoding the neomycin-resistance (neo) selectable marker. The chimeric reporter plasmids used in the transfections were purified using QIAGEN® plasmid isolation kits, and the cotransfections were done using Roche FuGENE 6™ transfection reagent (Roche Molecular Biochemicals, Indianapolis, Ind.) according to the manufacturer's instructions. In these transfections, 2.5 μg of MUC5B reporter plasmid DNA and 0.5 μg of the neomycin resistance marker plasmid per 35 mm culture dish were used for each transfection.
Following the cotransfection, cells were cultured for an additional 48 to 72 hours. At this time, the medium was replaced with fresh medium containing the neomycin analogue G-418 at a concentration of 100 μg/ml. The selection was maintained for approximately 21 days, at which time clones of resistant transfected cells were replated and maintained as continuous lines. Cell extracts were prepared and luciferase activity quantitated exactly as described in EXAMPLE 8, with the exception that cell extracts were normalized for total protein content, and not β-galactosidase activity. In addition, these cells were cultured in the absence or presence of IL-6 (10 ng/ml) or IL-17 (10 ng/ml).

MUC5B promoter [2] = assay: MUC5B-b2 luciferase reporter activity in primary TBE cultures derived from transgenic mice; type: cell-based; details: transgenic mouse TBE cells; cytokine 10 ng/ml, 7 days
Method: The transgenic mice described in EXAMPLE 9 were used to isolate TBE cells, which were maintained in culture. The TBE cells were maintained in three culture conditions, which were control (no supplement), with interleukin-6 (IL-6) at a concentration of 10 ng/ml or with IL-17 at a concentration of 10 ng/ml. The cells were maintained in the presence of the cytokines for 7 days, harvested and cell extracts were prepared as described in EXAMPLE 8. The luciferase activity in each cell extract was determined, and normalized for total protein concentration of the extract samples.

| Compound | MUC5B-b2 reporter gene activity, RA-treated vs RA-untreated, tissue culture dishes (TC) (MUC5B-b2 promoter; TC) | MUC5B-b2 reporter gene activity, fold increase RA-treated vs RA-untreated, BICG conditions (MUC5B-b2 promoter; collagen gel-coated Transwell chambers, air-liquid interface) | levels of MUC5B message in BI and BICG cultures (MUC5B message; Transwell chambers (BI) or collagen gel-coated Transwell chambers (BICG)) | levels of MUC5B message in TC and CG cultures (MUC5B message; tissue culture dishes (TC) or collagen gel coated dishes (CG)) | luciferase reporter activity in presence vs absence of cytokine (MUC5B promoter [1]) | MUC5B promoter activity (luciferase normalized for total protein) vs control without interleukin (MUC5B promoter [2]) |
| --- | --- | --- | --- | --- | --- | --- |
| CC1=C(/C=C/C(C)=C/C=C/C(C)=C/C(=O)O)C(C)(C)CCC1 [retinoic acid, all-trans-retinoic acid] | not affected | five-fold | greatly enhanced | unaffected | – | – |
| IL-17: pro-inflammatory cytokine IL-17 added to cell cultures | – | – | – | – | strongly induced; also recorded: upregulated | significant upregulation |
| IL-6: pro-inflammatory cytokine interleukin-6 added to cell cultures | – | – | – | – | strongly induced; also recorded: upregulated | significant upregulation |
